Assay type in all cases: cell-based
One test relates to SCLC cell lines. Briefly: SCLC cell viability assay, summary over the cell line panel. Particulars: all SCLC cell lines tested, TOP1 inhibitor alone. How it is done: (§1) SCLC cell lines NCI-H526 (“H526”), NCI-H524 (“H524”), NCI-H146 (“H146”), NCI-H1963 (“H1963”) and SW-1271 were obtained from the American Type Culture Collection (ATCC). COR-L95 cells were obtained from Millipore Sigma (#96020733). SBC-5 cells were obtained from the Japanese Collection of Research Bioresources Cell Bank (JCRB).
SCLC cell lines (shown in Table 2, column 1) were plated in white 384-well plates (Corning® 3765) at 1,000-2,000 cells/30 μl RPMI-1640 base media containing 10% heat-inactivated FBS (fetal bovine serum). Cell plates were incubated overnight at 37° C. in 5% CO2. Using a Tecan D300e Digital Dispenser, a dose response using a stock concentration of ADC or solution containing Example 1G and DMSO (dimethyl sulfoxide) was applied to the cells on day 0 and incubated for an additional 10 days (ADCs) or 3 days (Example 1G) at 37°° C. in 5% CO2. Samples were run in duplicate. Cell viability was assessed with the CellTiter-Glo™ Luminescent Cell Viability Assay (Promega, #G7570) according to the manufacturer's instructions, with the exception that the plates were shaken for 30 minutes prior to reading. Luminescence was read on the BioTek Synergy Neo2, and data was analyzed using GraphPad Prism software. […]

The test system of a further test is SBC-5. Briefly: SCLC cell viability assay (CellTiter-Glo), SBC-5. To be noted: Homo sapiens, 72 h; SBC-5, 3 days; read-out: IC50, 50% cell growth inhibition. How it is done:
as §1
(§2) SCLC cell lines (shown in Table 2, column 1) were plated in white 384-well plates (Corning® 3765) at 1,000-2,000 cells/30 μl RPMI-1640 base media containing 10% heat-inactivated FBS (fetal bovine serum). Cell plates were incubated overnight at 37° C. in 5% CO2. Using a Tecan D300e Digital Dispenser, a dose response using a stock concentration of ADC or solution containing Example 1G and DMSO (dimethyl sulfoxide) was applied to the cells on day 0 and incubated for an additional 10 days (ADCs) or 3 days (Example 1G) at 37°° C. in 5% CO2. Samples were run in duplicate. Cell viability was assessed with the CellTiter-Glo™ Luminescent Cell Viability Assay (Promega, #G7570) according to the manufacturer's instructions, with the exception that the plates were shaken for 30 minutes prior to reading. Luminescence was read on the BioTek Synergy Neo2, and data was analyzed using GraphPad Prism software.
A general note: ATP-based viability assays read luminescence as a measure of living cells.

In the next test the test system is NCI-H526. Put plainly: SCLC cell viability assay (CellTiter-Glo), NCI-H526. To be noted: Homo sapiens, 72 h; NCI-H526, 3 days; read-out: IC50, 50% cell growth inhibition. As to the method:
as §1, §2

A further test concerns SW-1271. Briefly: SCLC cell viability assay (CellTiter-Glo), SW-1271. Particulars: SW1271, 72 h; SW-1271, 3 days; read-out: IC50, 50% cell growth inhibition. How it is done: as §1, §2
The subject of the next test is COR-L95. Put plainly: SCLC cell viability assay (CellTiter-Glo), COR-L95. Particulars: 72 h; COR-L95, 3 days; read-out: IC50, 50% cell growth inhibition. How it is done:
as §1, §2

For a further test, the system named is NCI-H524. Put plainly: SCLC cell viability assay (CellTiter-Glo), NCI-H524. Particulars: Homo sapiens, 72 h; NCI-H524, 3 days; read-out: IC50, 50% cell growth inhibition. How it is done: as §1, §2
For the next test, the system named is NCI-H1963. Put plainly: SCLC cell viability assay (CellTiter-Glo), NCI-H1963. Particulars: Homo sapiens, 72 h; NCI-H1963, 3 days; read-out: IC50, 50% cell growth inhibition. How it is done:
as §1, §2

Test [1] concerns Calu-6 cells (lung adenocarcinoma). Put plainly: Cell proliferation (CellTiter-Glo luminescence), Calu-6. Particulars: Homo sapiens, Calu-6, read-out: EC50, TOP1i compound potency, Calu-6. How it is done:
The effect of TOP1i drugs on cell viability was assessed by monitoring ATP presence for metabolically active cells. Proliferation of Calu-6 cells (lung adenocarcinoma) and A375 cells (malignant melanoma) were quantified using CellTiter-Glo® luminescence.

For a further test, the system named is NCI-H146. Briefly: SCLC cell viability assay (CellTiter-Glo), NCI-H146. To be noted: Homo sapiens, 72 h; NCI-H146, 3 days; read-out: IC50, 50% cell growth inhibition. How it is done:
as §1, §2

Test [2] deals with A375 cells (malignant melanoma). Briefly: Cell proliferation (CellTiter-Glo luminescence), A375. Particulars: Homo sapiens, A-375, read-out: EC50, TOP1i compound potency, A375. The source says: Proliferation of Calu-6 cells (lung adenocarcinoma) and A375 cells (malignant melanoma) were quantified using CellTiter-Glo® luminescence.

In the case of `CC[C@@]1(O)C(=O)OCc2c1cc1n(c2=O)Cc2c-1nc1cc3c(cc1c2C12CC(N)(C1)C2)OCO3` [Example 1G, (7S)-14-(3-aminobicyclo[1.1.1]pentan-1-yl)-7-ethyl-7-hydroxy-2H,10H-[1,3]dioxolo[4,5-g]pyrano[3′,4′:6,7]indolizino[1,2-b]quinoline-8,11(7H,13H)-dione], the “IC50 in all cell lines” value with SCLC cell lines is given as “sub-to low-nM”. Besides, the IC50 in the test on SBC-5 came out at 1.26 nM; in the test with NCI-H526 it was 0.2 nM; in the test on SW-1271, 2.49 nM; in the test on COR-L95 it was 5.71 nM; with NCI-H524, 1.68 nM; with NCI-H1963, 6.28 nM. Also, the IC50 with NCI-H146 is 21.6 nM. The values for the EC50 in test [1] and in [2] were 0.57 nM and 0.5 nM, respectively.

As usually defined, the IC50 is the concentration needed to halve the response being measured. For orientation: EC50 means the concentration that produces a half-maximal response.

These data come from patent US20250032631A1, “ANTI-SEZ6 ANTIBODY DRUG CONJUGATES” (AbbVie Inc., priority 2022, published 2025).
